In patent publication US7479478B2, “Human parathyroid hormone modifications, preparation and use” (The General Hospital Corporation, priority 1998, dated 2009):
No end group written: not given here.

What was measured:
[1] = biological target: T1, rat PTH-1 receptors (Rattus norvegicus, UniProt P25961); experiment: PLC activation in EW5 cells; type: cell-based; conditions: compared with human PTH-1 receptor
T1 construct: expressed in transfected cells
T1 sequence (P25961 27-591): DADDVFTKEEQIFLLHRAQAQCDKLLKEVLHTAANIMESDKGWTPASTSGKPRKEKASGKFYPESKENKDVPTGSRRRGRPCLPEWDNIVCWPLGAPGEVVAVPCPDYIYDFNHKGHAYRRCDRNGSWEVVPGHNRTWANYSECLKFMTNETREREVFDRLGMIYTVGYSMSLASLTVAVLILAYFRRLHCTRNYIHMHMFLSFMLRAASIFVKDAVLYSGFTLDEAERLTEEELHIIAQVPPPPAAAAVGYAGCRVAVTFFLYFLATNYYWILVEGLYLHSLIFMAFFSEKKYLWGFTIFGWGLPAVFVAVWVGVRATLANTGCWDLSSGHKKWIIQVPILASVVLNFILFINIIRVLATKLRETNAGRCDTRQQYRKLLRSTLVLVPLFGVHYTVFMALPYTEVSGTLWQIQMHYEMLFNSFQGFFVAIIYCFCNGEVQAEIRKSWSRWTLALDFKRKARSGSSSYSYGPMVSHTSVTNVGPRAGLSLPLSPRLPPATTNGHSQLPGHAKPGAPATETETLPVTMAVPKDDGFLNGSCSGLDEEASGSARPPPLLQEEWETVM
Experimental: HKRK B7 or EW5 cells (32), subclones of LLC-PKI renal epithelial cells that stably express human or rat PTH-1 receptors (950,000 and 320,000 receptors/cell, respectively), were maintained under 5% CO2 in air in Dulbecco's modified essential medium containing 7% fetal bovine serum (FBS) and 1% penicillin/streptomycin (GIBCO-BRL, Grand Island, N.Y.). HEK-293 and COS-7 cells were cultured similarly, except that 10% FBS was used in the medium. Cells were seeded into 24-well plates two days before assay at a density of 2-2.5×10^5 cells/well (HKRK B7 or EW 5 cells) or 6×10^5 cells/well (in 6-well plates) (HEK-293 cells). In experiments involving HEK-293 cells, DNA transfections were performed 24 hr after plating and inositol radiolabel was added 24 hr thereafter (see below). COS-7 cell transfections were performed as previously described (Gardella, T. J., et al., Endocrinology 132(5):2024-2030 (1993))
PLC was activated by PTH agonists in the presence of 30 mM LiCl at 37° C. for 30 min after 16 hr of labeling with [^3H]myo-inositol (3 uCi/ml) in serum-free medium containing 0.1% bovine serum albumin. The reactions were stopped by rapid aspiration and addition of cold 5% TCA. Water-soluble radiolabeled inositol trisphosphate (IP3) was isolated after ether extraction by ion-exchange chromatography (Guo, J., et al., Endocrinology 136(9):3884-3891 (1995)). […]

[2] = tested on: membrane-bound PKCs; conditions: osteoblast-like ROS 17/2 cells; Neugebauer et al. 1995; cited from earlier work

Substance: SVSEIQLMHNLGKHLNSMERVEWLRKKL-NH2 [hPTH-(1-28)]
- signaling (PLC) via rat PTH-1 receptors, result in words [1]: more severely impaired
- stimulation of activity of membrane-bound PKCs [2]: incapable of stimulating
